Type in all cases: cell-based
For assay [1], the system named is Clostridium difficile CB-1620. Nature of the assay: MIC, C. difficile. The note with it: Clostridioides difficile, CB1620.
The test system of assay [2] is Bacteroides fragilis CB-1621. Nature of the assay: MIC, B. fragilis. The settings on record: CB1621.
The subject of assay [3] is Staphylococcus aureus ATCC 29213. Nature of the assay: MIC by microbroth dilution, S. aureus. An excerpt:
(§1) Methods for dilution antimicrobial susceptibility tests for bacteria that grow aerobically, 5th ed. M7-A5. National Committee for Clinical Laboratory Standards, Wayne, Pa.).
A general note: In broth dilution the organism is exposed to a series of concentrations in liquid medium.

The subject of assay [4] is Haemophilus influenzae ATCC 10211. Kind of assay: MIC by microbroth dilution, H. influenzae.
Source text: as §1

Assay [5] deals with Escherichia coli ATCC 25922. Kind of assay: MIC by microbroth dilution, E. coli.
Source text: as §1

The test system of assay [6] is Mycobacterium tuberculosis H37Rv. Kind of assay: MIC, M. tuberculosis.
Assay [7] has as its system Helicobacter pylori ATCC 700392. Nature of the assay: MIC by agar dilution, H. pylori.
Source text: as §1
For orientation: In agar dilution, organisms are placed on agar that contains the substance at set levels.

Assay [8] deals with Helicobacter pylori CB1572 (Rif-resistant, rpoB L525I, D530N). Kind of assay: microbe, parasite or virus in culture. The settings on record: read-out: MIC H. pylori CB1572 (Rif-resistant).
Source text: as §1

The mark [9] stands for this setting: ATCC29213, read-out: MIC S. aureus ATCC# 29213.
Setting [10] is: ATCC25922, read-out: MIC E. coli ATCC# 25922.
The mark [11] stands for this setting: ATCC700392, read-out: MIC H. pylori ATCC# 700392.

Values after ≈ are worked out from the molar mass of the structure shown. Like-named read-outs stand apart in the source and are kept apart here.

In the case of `CO[C@H]1/C=C/O[C@@]2(C)Oc3c(C)c(O)c4c(c3C2=O)C2=NC3(CCN(CCn5c([N+](=O)[O-])cnc5C)CC3)NC2=C(NC(=O)/C(C)=C\C=C\[C@H](C)[C@H](O)[C@@H](C)[C@@H](O)[C@@H](C)[C@H](OC(C)=O)[C@@H]1C)C4=O` [Example 1, 4-Deoxy-3,4-[2-spiro-[1-[2-(2-methyl-5-nitro-imidazol-1-yl)ethyl]-piperidin-4-yl]]-(1H)-imidazo-(2,5-dihydro)rifamycin S], the MIC in assay [1] amounted to 0.00025 µg/mL (≈ 0.000265 µM); in assay [2] it was 0.03 µg/mL (≈ 0.0318 µM); in assay [3] (setting [9]) it was 0.03 µg/mL (≈ 0.0318 µM); in assay [4] (ATCC10211, read-out: MIC H. influenzae ATCC# 10211), 1 µg/mL (≈ 1.06 µM); in assay [5] (setting [10]), 16 µg/mL (≈ 16.9 µM); in assay [6], 0.016 µg/mL (≈ 0.0169 µM). The MIC was not above 0.03 µg/mL in assay [7] (setting [11]) and 0.5 µg/mL (≈ 0.53 µM) in assay [8].

As to `CO[C@H]1/C=C/O[C@@]2(C)Oc3c(C)c(O)c4c(O)c(c(/C=N/N5CCN(CCn6c([N+](=O)[O-])cnc6C)CC5)c(O)c4c3C2=O)NC(=O)/C(C)=C\C=C\[C@H](C)[C@H](O)[C@@H](C)[C@@H](O)[C@@H](C)[C@H](OC(C)=O)[C@@H]1C` [Example 3, 3-[[[4-[2-(2-methyl-5-nitro-imidazol-1-yl)ethyl]-1-piperazinyl]imino]methyl]rifamycin SV], the MIC in assay [3] (setting [9]) is 0.03 µg/mL (≈ 0.0312 µM); in assay [7] (setting [11]), 0.5 µg/mL (≈ 0.52 µM); in assay [8] it was 2 µg/mL (≈ 2.08 µM).

On to `CO[C@H]1/C=C/O[C@@]2(C)Oc3c(C)c(O)c4c(=O)c(c5oc6cc(N7CCN(CCn8c([N+](=O)[O-])cnc8C)CC7)cc(O)c6nc-5c4c3C2=O)NC(=O)/C(C)=C\C=C\[C@H](C)[C@H](O)[C@@H](C)[C@@H](O)[C@@H](C)[C@H](OC(C)=O)[C@@H]1C` [Example 4, 3′-Hydroxy-5′-[4-[2-(2-methyl-5-nitro-imidazol-1-yl)ethyl]-1-piperazinyl]benzoxazinorifamycin], for which the MIC in assay [3] (setting [9]) is less than 0.004 µg/mL; in assay [5] (setting [10]) it was more than 8 µg/mL; in assay [7] (setting [11]), not above 0.03 µg/mL; in assay [8], 1 µg/mL (≈ 0.963 µM).

In the case of `CO[C@H]1/C=C/O[C@@]2(C)Oc3c(C)c(O)c4c(O)c(c(/C=N/N5CCN(C)CC5)c(O)c4c3C2=O)NC(=O)/C(C)=C\C=C\[C@H](C)[C@H](O)[C@@H](C)[C@@H](O)[C@@H](C)[C@H](OC(C)=O)[C@@H]1C` [rifampin, reference compound], the MIC in assay [1] was found to be 0.001 µg/mL (≈ 0.00122 µM); in assay [2], 0.06 µg/mL (≈ 0.0729 µM); in assay [3] (ATCC29213, microbroth dilution, read-out: MIC S. aureus ATCC# 29213), 0.008 µg/mL (≈ 0.00972 µM); in assay [4] (ATCC10211, microbroth dilution, read-out: MIC H. influenzae ATCC# 10211) it was 0.24 µg/mL (≈ 0.292 µM); in assay [5] (ATCC25922, microbroth dilution, read-out: MIC E. coli ATCC# 25922), 8 µg/mL (≈ 9.72 µM); in assay [7] (ATCC700392, agar dilution, read-out: MIC H. pylori ATCC# 700392), 0.12 µg/mL (≈ 0.146 µM). The MIC in assay [8] is more than 32 µg/mL.

These data come from patent US7678791B2, “Nitroheteroaryl-containing rifamycin derivatives” (Cumbre IP Ventures, L.P., priority 2006, dated 2010).
